Measured values: US11679107B2 (Eisai R&D Management Co., Ltd., priority 2018, dated 2023)
Like-named read-outs stand apart in the source and are kept apart here.

Key:
SF3b complexes = biological target: T1, SF3b complexes (Homo sapiens, UniProt O75533+Q7RTV0); experiment: Scintillation proximity assay (SPA) with [3H]-labelled pladienolide probe; type: binding; conditions: SF3B1 (WT); geometric mean; read-out: SPA-ATS GMean IC50 (nM) SF3B1 (WT)
T1 construct: endogenous in cells; host or cells: Nuclear extracts; A HeLa S3 extract preparation is described for the in vitro splicing assay
Summary of the method: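 SF3b complexes captured from nuclear extracts on anti-SF3B1 antibody SPA beads; test compounds pre-incubated 30 min before 2.5 nM [3H]-pladienolide probe added, then 30 min incubation. Bound probe read by scintillation; values from non-linear regression of concentration–response curves.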

[1] = test system: Ad2 variant pre-mRNAs spliced in HeLa S3 nuclear extracts; experiment: In vitro splicing assay (IVS), RT-qPCR of spliced product; type: biochemical; conditions: for IC50: geometric mean
Summary of the method: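 Read-out is one-step TaqMan RT-qPCR of spliced Ad2 mRNA with Ftz as reference, normalized to DMSO and fit by non-linear regression. Reactions held HeLa S3 nuclear extract, 2 ng Ad2-derived pre-mRNA and test compound, with 15 min preincubation. Splicing was started with ATP-containing activation buffer and run 90 min at 30 °C.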

[2] = test system: Panc 05.04 cells (SF3b K700E mutant); experiment: Cell proliferation and viability, CellTiter-Glo, 72 hours; type: cell-based; conditions: for GI50: geometric mean
Summary of the method: (§1)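 ATP luminescence (CellTiter-Glo) was measured 72 h after treatment with compound at 10 μM–100 pM (11 points, half-log) in 0.1% DMSO. The Panc line was grown in RPMI-1640 plus insulin and 15% FBS, the other in 10% FBS. Data were normalised to time zero and vehicle controls, where −100% is cidal and 0% static.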

[3] = test system: NCI-H1568 cells (high MCL1); experiment: as above; type: cell-based; conditions: for GI50: geometric mean
Summary of the method: as §1

[4] = Ad2.1 pre-mRNA substrate, read-out: qPCR-IVS-ATS GMean IC50 (nM) Ad2.1
[5] = Ad2.2 pre-mRNA substrate, read-out: qPCR-IVS-ATS GMean IC50 (nM) Ad2.2
[6] = PANC0504.1 cells, 72 h, −100% cidal, 0% static, 100% maximal growth
[7] = Panc 05.04, read-out: CTGlo-ATS GMean GI50 (nM) 72 h PANC0504.1, PANC0504.1 cells, 72 h
[8] = NCI-H1568, read-out: CTGlo-ATS GMean GI50 (nM) 72 h NCIH1568.1, NCIH1568.1 cells, 72 h
[9] = NCIH1568.1 cells, 72 h, −100% cidal, 0% static, 100% maximal growth
[10] = Panc 05.04, 72 h, read-out: CTGlo-ATS GMean GI50 (nM) 72 h PANC0504.1, PANC0504.1 cells, 72 h
[11] = NCI-H1568, 72 h, read-out: CTGlo-ATS GMean GI50 (nM) 72 h NCIH1568.1, NCIH1568.1 cells, 72 h

Structure (SMILES) | IC50 (SF3b complexes) | IC50 [1, 4] | IC50 [1, 5] | CTGlo-ATS Mean MinResponse % 72 h PANC0504.1 [2, 6] | GI50 [2, 7] | GI50 [3, 8] | CTGlo-ATS Mean MinResponse % 72 h NCIH1568.1 [3, 9] | GI50 [2, 10] | GI50 [3, 11] | Ratio Ad2.1/2.2 ([1]; ratio of IVS IC50 Ad2.1 to Ad2.2) | CTGlo-ATS Mean MinResponse % 72 h PANC0504.1 ([2]; 72 h, PANC0504.1, -100% = cidal, 0% = static, 100% = uninhibited growth) | GI50 ([2]; Panc 05.04, read-out: CTGlo-ATS GMean GI50 (nM) 72 h PANC0504.1, 72 h, PANC0504.1) | CTGlo-ATS Mean MinResponse % 72 h NCIH1568.1 ([3]; 72 h, NCIH1568.1, -100% = cidal, 0% = static, 100% = uninhibited growth) | GI50 ([3]; NCI-H1568, read-out: CTGlo-ATS GMean GI50 (nM) 72 h NCIH1568.1, 72 h, NCIH1568.1)
C/C(=C\c1cc(F)cc(N2CCOCC2)c1)[C@H]1OC(=O)C[C@H](O)CC[C@H](C)[C@@H](OC(=O)N2CCN(C)[C@H](C)C2)/C=C/[C@@H]1C [Compound 23] | 4.23 nM | 369 nM | 28.3 nM | −90.781% | 10.4 nM | 10.8 nM | −64.974% | – | – | – | – | – | – | –
C/C(=C\c1ccc2c(C)nn(C)c2c1)[C@H]1OC(=O)C[C@H](O)CC[C@H](C)[C@@H](OC(=O)N2CCN(C)CC2)/C=C/[C@@H]1C [Compound 50] | 1.46 nM | 17900 nM | 60.2 nM | −82.642% | 28.3 nM | 43.6 nM | −65.255% | – | – | – | – | – | – | –
C/C(=C\c1cc(F)cc(N2CCS(=O)(=O)CC2)c1)[C@H]1OC(=O)C[C@H](O)CC[C@H](C)[C@@H](OC(=O)N2CCN(C)CC2)/C=C/[C@@H]1C [Compound 52] | 8.3 nM | 39.6 nM | 45.4 nM | −76.609% | – | – | −63.079% | 13.6 nM | 23.3 nM | – | – | – | – | –
C/C(=C\c1cccc(S(=O)(=O)N2CCN(C=O)CC2)c1)[C@H]1OC(=O)C[C@H](O)CC[C@H](C)[C@@H](OC(=O)N2CCN(C)CC2)/C=C/[C@@H]1C [Compound 94] | 7.48 nM | 5570 nM | 37.5 nM | −94.671% | 30.4 nM | 35.5 nM | −40.948% | – | – | – | – | – | – | –
C/C(=C\c1cc(F)c2cn[nH]c2c1)[C@H]1OC(=O)C[C@H](O)CC[C@H](C)[C@@H](OC(=O)N2CCN(C)CC2)/C=C/[C@@H]1C [Compound 59] | 2.75 nM | 13600 nM | 46.1 nM | −95.512% | 17.5 nM | 14.5 nM | −44.526% | – | – | – | – | – | – | –
C/C(=C\c1cccc(S(=O)(=O)N2CCCCC2)c1)[C@H]1OC(=O)C[C@H](O)CC[C@H](C)[C@@H](OC(=O)N2CCN(C)CC2)/C=C/[C@@H]1C [Compound 213, [(2S,3S,4E,6R,7S,10R)-10-hydroxy-3,7-dimethyl-12-oxo-2-[(E)-1-(3-piperidin-1-ylsulfonylphenyl)prop-1-en-2-yl]-1-oxacyclododec-4-en-6-yl] 4-methylpiperazine-1-carboxylate] | 3.23 nM | 9.84 nM | 7.96 nM | – | – | – | – | – | – | 1.236 | −85.603% | 3.2 nM | −64.116% | 6.03 nM
C/C(=C\c1cc(F)cc(N2CCN(CCO)CC2)c1)[C@H]1OC(=O)C[C@H](O)CC[C@H](C)[C@@H](OC(=O)N2CCC(N3CCCCC3)CC2)/C=C/[C@@H]1C [Compound 13] | 7.43 nM | 19.3 nM | 15.9 nM | −94.040% | 32.7 nM | 20.8 nM | −95.312% | – | – | – | – | – | – | –
C/C(=C\c1cc(F)cc(N2CCOCC2)c1)[C@H]1OC(=O)C[C@H](O)CC[C@H](C)[C@@H](OC(=O)N2CCN(C)CC2)/C=C/[C@@H]1C [Compound 3] | 1.74 nM | 18.6 nM | 10.3 nM | −87.809% | – | – | −78.460% | 2.96 nM | 2.42 nM | – | – | – | – | –
C/C(=C\c1ccc(S(=O)(=O)NC2CCCC2)cc1F)[C@H]1OC(=O)C[C@H](O)CC[C@H](C)[C@@H](OC(=O)N2CCN(C)CC2)/C=C/[C@@H]1C [Compound 57] | 9.16 nM | > 25000 nM | 228 nM | −71.380% | 49.7 nM | 41.3 nM | −47.783% | – | – | – | – | – | – | –
